Results taken from patent US20220184394A1, “STATE-DEPENDENT PUDENDAL NERVE STIMULATION FOR BLADDER CONTROL” (Duke University, priority 2017, published 2022).
Entries after “also recorded” stand apart in the source; their conditions may differ. Like-named read-outs stand apart in the source and are kept apart here.

Tests used:
bladder [1] = assay: Single-fill cystometry with intravesical PGE2 (model of OAB) in anesthetized rats; format: in vivo, Female Wistar rats; settings: intravesical 100 μM PGE2 vs saline control
Protocol: Female Wistar rats (n=18) weighing between 237 and 296 g were anesthetized with urethane (1.2 g/kg SC, supplemented as necessary). Body temperature was monitored using an esophageal temperature probe and maintained at 36-38° C. with a water blanket. Heart rate and arterial blood oxygen saturation levels were monitored using a pulse oximeter (Nonin Medical Inc., 2500 A VET).
For cystometrogram (CMG) measurements, the bladder was exposed via a midline abdominal incision. A PE-90 catheter, the tip of which was heated to create a collar, was inserted into the bladder lumen through a small incision in the apex of the bladder dome and secured with a 6-0 silk suture. The abdominal wall was closed in layers with 3-0 silk suture. […]
The bladder was filled continuously with physiological saline at room temperature (2-8 ml/hr) using an infusion pump with an open urethra for at least 45 minutes during post-surgical recovery. The bladder was subsequently emptied and cystometrograms (CMGs) recorded. […] Voided and residual volumes were recorded and used to calculate bladder capacity and voiding efficiency. […] For these trials, voiding efficiency was calculated as the first voided volume divided by the bladder capacity, and “reflex” voiding efficiency was calculated as the sum of the two voided volumes divided by the bladder capacity. […]

bladder [2] = settings: intravesical PGE2, rats; cited from earlier work
bladder [3] = settings: PGE2 given to healthy women; cited from earlier work

Question: Which results are given for CCCCC[C@H](O)/C=C/[C@H]1[C@H](O)CC(=O)[C@@H]1C/C=C\CCCC(=O)O [PGE2, Prostaglandin E2]?
Answer: Voiding efficiency (bladder [1]; n=9, p<0.001): increased voiding efficiency; also recorded: Voiding efficiency increased; Bladder capacity (bladder [1]; urethane-anesthetized, n=9, p=0.02): consistently reduced bladder capacity; also recorded: decreased bladder capacity; also recorded: Bladder capacity decreased; Bladder capacity (bladder [2]): reduces bladder capacity; Bladder capacity (bladder [3]): reduced bladder capacities; Urgency sensation (bladder [3]): a strong urgency sensation
